Test results: article PMC4809247 (Journal of medicinal chemistry, 2015)

How the values were obtained:
marble burying [1] = conditions: cited from earlier work
immobility time [2] = conditions: cited from earlier work
rat mGlu2 [3] = target: T1, rat mGlu2 (Rattus norvegicus, UniProt P31421); conditions: cited from earlier work
[4] = Rat cassette PK study, IV dosing; conditions: in vivo, 0.2 mg/kg
[5] = Intrinsic clearance in rat liver microsomes; type: in vitro ADME; conditions: predicted hepatic clearance based on intrinsic clearance in rat liver microsomes
rat mGlu3 [6] = target: T2, rat mGlu3 (Rattus norvegicus, UniProt P31422); assay: cell-based
T2 sequence (P31422 23-879): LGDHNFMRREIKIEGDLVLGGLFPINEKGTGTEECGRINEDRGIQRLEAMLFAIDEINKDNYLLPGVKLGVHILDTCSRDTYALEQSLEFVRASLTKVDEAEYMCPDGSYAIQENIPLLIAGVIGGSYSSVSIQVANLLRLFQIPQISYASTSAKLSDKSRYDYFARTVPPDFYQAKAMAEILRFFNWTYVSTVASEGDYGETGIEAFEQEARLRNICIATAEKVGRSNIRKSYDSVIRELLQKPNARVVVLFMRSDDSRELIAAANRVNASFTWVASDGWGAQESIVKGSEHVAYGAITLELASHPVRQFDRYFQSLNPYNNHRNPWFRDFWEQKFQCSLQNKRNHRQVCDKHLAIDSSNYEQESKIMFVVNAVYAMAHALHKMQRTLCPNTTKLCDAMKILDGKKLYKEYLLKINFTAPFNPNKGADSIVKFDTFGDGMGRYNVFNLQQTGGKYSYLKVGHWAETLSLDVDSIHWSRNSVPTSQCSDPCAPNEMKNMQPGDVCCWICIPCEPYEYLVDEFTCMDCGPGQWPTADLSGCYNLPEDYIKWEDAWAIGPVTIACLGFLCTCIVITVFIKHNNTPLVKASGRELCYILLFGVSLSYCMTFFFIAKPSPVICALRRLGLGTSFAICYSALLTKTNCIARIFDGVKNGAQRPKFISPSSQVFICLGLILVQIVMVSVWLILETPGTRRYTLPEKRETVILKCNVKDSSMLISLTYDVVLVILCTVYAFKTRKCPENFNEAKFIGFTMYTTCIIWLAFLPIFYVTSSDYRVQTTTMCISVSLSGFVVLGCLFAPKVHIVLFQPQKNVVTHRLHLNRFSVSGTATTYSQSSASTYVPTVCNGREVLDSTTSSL

rat mGlu5 [7] = target: T3, rat mGlu5 (Rattus norvegicus, UniProt P31424); assay: Calcium mobilization mGlu5 assay; type: cell-based; conditions: calcium mobilization; average of n ≥ 3 (n = 2 where marked)
T3 sequence (P31424 21-1203): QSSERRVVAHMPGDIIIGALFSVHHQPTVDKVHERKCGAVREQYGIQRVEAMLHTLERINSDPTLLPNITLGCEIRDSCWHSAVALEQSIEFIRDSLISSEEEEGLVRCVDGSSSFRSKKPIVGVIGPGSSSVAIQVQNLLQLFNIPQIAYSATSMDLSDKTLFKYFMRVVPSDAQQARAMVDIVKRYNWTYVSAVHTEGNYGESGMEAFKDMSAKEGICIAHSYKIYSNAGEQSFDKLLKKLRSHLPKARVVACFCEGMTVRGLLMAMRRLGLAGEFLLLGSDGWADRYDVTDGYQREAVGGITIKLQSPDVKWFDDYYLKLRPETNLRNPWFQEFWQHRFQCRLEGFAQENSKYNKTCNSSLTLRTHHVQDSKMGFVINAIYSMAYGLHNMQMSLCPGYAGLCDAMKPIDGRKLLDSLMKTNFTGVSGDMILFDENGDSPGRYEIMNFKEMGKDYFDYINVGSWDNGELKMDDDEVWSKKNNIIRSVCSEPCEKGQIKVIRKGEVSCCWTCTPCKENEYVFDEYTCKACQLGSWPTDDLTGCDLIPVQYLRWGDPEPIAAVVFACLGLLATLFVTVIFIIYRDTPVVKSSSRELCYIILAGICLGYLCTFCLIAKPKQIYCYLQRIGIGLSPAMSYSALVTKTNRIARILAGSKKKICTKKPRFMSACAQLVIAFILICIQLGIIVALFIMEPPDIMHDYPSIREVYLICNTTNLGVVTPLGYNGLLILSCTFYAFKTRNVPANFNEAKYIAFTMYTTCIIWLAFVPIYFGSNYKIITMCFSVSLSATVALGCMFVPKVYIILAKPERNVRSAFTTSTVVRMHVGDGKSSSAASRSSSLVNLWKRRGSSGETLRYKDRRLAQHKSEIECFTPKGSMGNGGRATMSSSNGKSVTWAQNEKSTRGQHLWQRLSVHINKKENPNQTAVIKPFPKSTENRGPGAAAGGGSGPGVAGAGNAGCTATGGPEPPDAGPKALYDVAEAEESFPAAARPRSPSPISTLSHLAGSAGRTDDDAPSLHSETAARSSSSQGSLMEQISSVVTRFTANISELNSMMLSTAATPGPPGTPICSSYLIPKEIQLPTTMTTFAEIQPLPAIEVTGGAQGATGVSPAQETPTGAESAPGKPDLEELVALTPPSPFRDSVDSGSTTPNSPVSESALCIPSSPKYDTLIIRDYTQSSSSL

rat mGlu2 [8] = target: T1, rat mGlu2; assay: mGlu2 calcium mobilization assay; type: cell-based; conditions: full CRC
5-HT2B = 5-HT2B (Homo sapiens, UniProt P41595); assay: 5-HT2B functional cell-based assay; conditions: agonist or antagonist
Chain of 5-HT2B (P41595 whole entry, species assumed): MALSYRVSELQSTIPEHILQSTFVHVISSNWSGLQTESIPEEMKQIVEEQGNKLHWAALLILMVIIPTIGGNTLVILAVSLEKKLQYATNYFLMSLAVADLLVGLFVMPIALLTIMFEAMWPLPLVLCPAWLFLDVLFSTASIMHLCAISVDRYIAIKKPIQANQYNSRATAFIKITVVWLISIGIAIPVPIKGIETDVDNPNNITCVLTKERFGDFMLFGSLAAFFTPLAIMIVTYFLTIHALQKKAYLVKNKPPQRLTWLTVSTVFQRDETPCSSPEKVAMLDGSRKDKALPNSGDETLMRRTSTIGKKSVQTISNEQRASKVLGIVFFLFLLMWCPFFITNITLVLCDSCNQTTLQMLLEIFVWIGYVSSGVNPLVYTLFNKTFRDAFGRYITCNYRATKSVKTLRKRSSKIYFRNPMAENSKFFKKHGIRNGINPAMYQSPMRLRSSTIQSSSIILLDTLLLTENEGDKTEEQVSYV

[9] = Mouse IP single time point tissue distribution; conditions: in vivo, 10 mg/kg, plasma concentration, 30 min post dose, n = 3
Mouse IP PK time course = type: in vivo; conditions: 10 mg/kg dose in marble burying study, estimated from DMPK data
immobility time [10] = assay: Forced swim test; type: in vivo, rat; conditions: 56.6 mg/kg (highest dose); male Sprague–Dawley rats; 30 min pretreatment; 6 min session; p < 0.05 vs vehicle
other mGlus = type: cell-based; conditions: 10 μM compound, fold-shift experiments
[11] = system: panel of 68 clinically relevant GPCRs, ion channels, kinases, and transporters; type: binding; conditions: 10 μM; 68 targets
rat mGlu3 [12] = target: T2, rat mGlu3; conditions: calcium mobilization; average of n ≥ 3
marble burying [13] = assay: Marble burying assay in mice; conditions: 56.6 mg/kg; male CD-1 mice; 15 min pretreatment
rat mGlu5 [14] = target: T3, rat mGlu5; conditions: cited from earlier work
mGlu3 = mGlu3 (Rattus norvegicus, UniProt P31422); conditions: multiple concentrations of compound
Chain of mGlu3 (P31422 23-879): as the sequence (P31422 23-879) above

T1 sequence (P31421 19-872): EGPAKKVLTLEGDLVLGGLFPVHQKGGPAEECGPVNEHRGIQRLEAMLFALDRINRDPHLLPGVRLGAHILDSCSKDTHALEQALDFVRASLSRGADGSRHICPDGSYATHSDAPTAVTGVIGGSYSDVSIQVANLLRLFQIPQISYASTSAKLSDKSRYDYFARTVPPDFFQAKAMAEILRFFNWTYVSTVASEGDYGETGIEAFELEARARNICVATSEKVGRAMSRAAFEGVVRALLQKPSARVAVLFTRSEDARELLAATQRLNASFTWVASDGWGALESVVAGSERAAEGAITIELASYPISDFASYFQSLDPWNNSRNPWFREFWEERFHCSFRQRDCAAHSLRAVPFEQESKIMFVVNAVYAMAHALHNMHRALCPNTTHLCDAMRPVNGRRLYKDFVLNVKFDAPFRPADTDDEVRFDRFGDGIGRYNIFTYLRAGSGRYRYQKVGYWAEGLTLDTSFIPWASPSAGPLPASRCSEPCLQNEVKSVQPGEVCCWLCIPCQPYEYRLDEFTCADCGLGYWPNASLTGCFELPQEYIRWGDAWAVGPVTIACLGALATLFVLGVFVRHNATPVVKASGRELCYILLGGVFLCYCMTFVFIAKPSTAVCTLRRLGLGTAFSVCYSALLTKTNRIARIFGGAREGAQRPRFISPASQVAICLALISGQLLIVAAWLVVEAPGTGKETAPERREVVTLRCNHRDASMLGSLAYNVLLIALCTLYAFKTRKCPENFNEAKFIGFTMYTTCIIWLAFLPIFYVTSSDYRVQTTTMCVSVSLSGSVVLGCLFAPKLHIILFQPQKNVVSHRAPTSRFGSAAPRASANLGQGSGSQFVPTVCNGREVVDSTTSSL

For `N[C@]1(C(=O)O)[C@H]2[C@@H](C[C@H]1OCc1ccc(Cl)c(Cl)c1)[C@]2(F)C(=O)O` [Compound 2], the “inhibition of marble burying” value (marble burying [1]) is given as “previously shown to inhibit marble burying” and the “efficacy in FST” value (immobility time [2]) is given as “efficacy”.
For `COc1ccc(C#Cc2ccc(C(=O)N3CCC[C@@H](CO)C3)cc2)cc1` [Compound 7], the “selectivity versus mGlu2” value (rat mGlu2 [3]) is listed as greater than 15 fold.
Compound `C[C@@H]1CN(c2ccc(F)cc2)C(=O)c2cc(COc3ccc(Cl)cn3)nn21` [Compound 48] has a half-life [4] of roughly 2 h.
In the case of `N[C@](CC1c2ccccc2Oc2ccccc21)(C(=O)O)[C@H]1C[C@@H]1C(=O)O` [Compound 1], the “inhibition of marble burying” value (marble burying [1]) is listed as “previously shown to inhibit marble burying” and the “efficacy in FST” value (immobility time [2]) is listed as “efficacy”.
For `C[C@@H]1CN(c2cc(F)cc(C#N)c2)C(=O)c2cc(COc3ccc(Cl)cn3)nn21` [Compound 99], the “rat CLhep” value [5] was 47.7 mL/min/kg, the IC50 (rat mGlu3 [6]) was 529 nM and the half-life [4] was greater than 3 h.
With `C[C@@H]1CN(c2cccnc2F)C(=O)c2cc(COc3ccc(Cl)cn3)nn21` [Compound 106, (R)-2-(((5-Chloropyridin-2-yl)oxy)methyl)-5-(2-fluoropyridin-3-yl)-7-methyl-6,7-dihydropyrazolo[1,5-a]pyrazin-4(5H)-one] the “mGlu5 pEC50 (± SEM)” value (rat mGlu5 [7]) was less than 4.5, the “mGlu2: inactive up to the top concentration tested” value (rat mGlu2 [8]) was greater than 30 µM and the “5-HT2B functional activity: no activity up to” value (5-HT2B) was greater than 10 µM. For the same compound, the concentration at 30 min [9] was 2590 ± 290 nM, the “estimated peak CNS unbound exposure” value (Mouse IP PK time course) was 564 nM and the “decrease in immobility time in FST” value (immobility time [10]) was “significant effects in decreasing immobility time”. For the same compound, the “effect on the orthosteric agonist CRC, other mGlus” value (other mGlus) was “No significant effect”, the “significant responses (>50% inhibition of radioligand binding) in panel” value [11] was “only a single significant response” and the “mGlu3 pIC50 (± SEM)” value (rat mGlu3 [12]) was 6.41 ± 0.05. For the same compound, the “inhibition of marble burying at highest dose” value (marble burying [13]) was “essentially complete inhibition”.
With `C[C@@H]1CN(c2ccc(F)cc2)C(=O)c2cc(COc3ccc(F)cc3)nn21` [Compound 24] the “mGlu5 pEC50 (± SEM)” value (rat mGlu5 [7]) was 7.03 ± 0.05, the “mGlu3 pIC50 (± SEM)” value (rat mGlu3 [12]) was 6.34 ± 0.04 and the half-life [4] was greater than 1.5 h.
For `COc1ccc(C#Cc2ccc(C(=O)N3CCC[C@@H](O)C3)c(F)c2)cc1` [Compound 8], the “mGlu5 activity” value (rat mGlu5 [14]) is listed as “devoid of both mGlu2 and mGlu5 activity” and the “mGlu2 activity” value (rat mGlu2 [3]) is listed as “devoid of both mGlu2 and mGlu5 activity”.
For `N#Cc1cc(C2=Nc3ccc(Br)cc3NC(=O)C2)ccn1` [Compound 111], the “effect on the glutamate CRC (progressive fold-shift)” value (mGlu3) was “characteristic rightward shift and depressed glutamate maximum”.
With `C[C@@H]1CN(c2ccc(F)cc2)C(=O)c2cc(COc3ccccn3)nn21` [Compound 10] the “mGlu2: inactive up to the top concentration tested” value (rat mGlu2 [8]) was greater than 30 µM.
